2 molecules from ChEMBL document CHEMBL4732142, “Discovery of the First Druggable GPR52 Antagonist to Treat Huntington's Disease” (J Med Chem, 2021) can be followed below.

Calls of active or inactive are those of the source. The rule behind the calls is not given here.

Data set [1] addresses G-protein coupled receptor 52 (Mus musculus, UniProt P0C5J4). The data set is described as follows: In-vivo antagonist activity at GPR52 in HdhQ140 mouse model with GPR52 knockdown assessed as decrease in mHTT levels. The data set is classed as functional.
For data set [2], the species on record is Mus musculus. The data set is described as follows: Neuroprotective activity in primary striatal neurons from HdhQ140 mouse assessed as rescue of mHTT-induced neuronal survival loss. The conditions noted are these: Neuron. The data set is classed as functional, organism-based.
Data set [3] deals with Mus musculus. The data set is described as follows: Neuroprotective activity in HdhQ140 mouse assessed as decrease in staining intensity of microglia at 0.5 mM, icv by Iba1staining based analysis. The data set is classed as functional, organism-based.
Data set [4] can be described thus: Drug uptake in mouse brain at 5 mg/kg, iv. The data set is classed as ADME, organism-based. Particulars: in vivo, read-out: Drug uptake.
Data set [5] in a line: Neuroprotective activity in HdhQ140 mouse model assessed as alleviation of motor deficiency at 5 mg/kg, iv. The data set is classed as organism-based. Particulars: in vivo.
Data set [6] has as its system Mus musculus. The data set is described as follows: Neuroprotective activity in primary striatal neurons from HdhQ140 mouse assessed as rescue of mHTT-induced neuronal survival loss at 5 mg/kg, iv. The data set is classed as functional, organism-based.
Data set [7] deals with Mus musculus. The data set is described as follows: Neuroprotective activity in HdhQ140 mouse assessed as decrease in staining intensity of microglia at 5 mg/kg, iv by Iba1staining based analysis. The data set is classed as functional, organism-based.

Sequence of G-protein coupled receptor 52 (P0C5J4 whole entry): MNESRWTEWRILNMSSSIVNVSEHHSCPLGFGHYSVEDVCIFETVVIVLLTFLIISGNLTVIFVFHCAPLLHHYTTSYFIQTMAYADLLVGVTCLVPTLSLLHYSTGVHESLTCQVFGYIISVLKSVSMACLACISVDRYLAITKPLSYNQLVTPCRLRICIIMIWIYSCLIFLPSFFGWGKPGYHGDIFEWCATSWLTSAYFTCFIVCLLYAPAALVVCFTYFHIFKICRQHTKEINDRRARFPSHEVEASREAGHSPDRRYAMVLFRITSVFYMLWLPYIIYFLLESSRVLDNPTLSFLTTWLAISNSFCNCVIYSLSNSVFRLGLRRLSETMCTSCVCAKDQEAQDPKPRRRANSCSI

`O=C(/C=C/CCc1ccccc1)CCc1ccccc1`: in data set [1], the IC50 amounted to 6 µM.

Consider `O=C(/C=C/CCc1ccccc1)c1cccs1`, for which the outcome in the data set listed under Mus musculus [2], in the data set on Mus musculus [3], with Mus musculus [6] and in the data set with Mus musculus [7] was Active. Moreover, in data set [4], the concentration turned out to be 0.02 µM. For the same molecule, in data set [5], the Activity result is “Toxic”.

What is called IC50 is the concentration at which inhibition is half-maximal.
